Consider 2 molecules from ChEMBL document CHEMBL4052645, “Discovery of potent and efficacious pyrrolopyridazines as dual JAK1/3 inhibitors” (Bioorg Med Chem Lett, 2017).

The target of test [1] is NUAK family SNF1-like kinase 1 (Homo sapiens) (UniProt O60285). Put plainly: Inhibition of human NUAK1 (25 to I332 residues) expressed in bacterial expression system assessed as residual activity at 50 nM by KINOMEscan assay relative to control.
Test [2] addresses Phosphatidylinositol 4-phosphate 5-kinase type-1 alpha (Homo sapiens) (UniProt Q99755). The test can be described thus: Inhibition of human PIP5K1A (M1 to H562 residues) expressed in bacterial expression system assessed as residual activity at 50 nM by KINOMEscan assay relative to control.
For test [3], the target named is Hormonally up-regulated neu tumor-associated kinase (Homo sapiens) (UniProt P57058). The test can be described thus: Inhibition of wild-type human partial length HUNK (A31 to K354 residues) expressed in bacterial expression system assessed as residual activity at 50 nM by Kinomescan method relative to control.
Hormonally up-regulated neu tumor-associated kinase (Homo sapiens), sequence (P57058 whole entry, the tested form may be a part): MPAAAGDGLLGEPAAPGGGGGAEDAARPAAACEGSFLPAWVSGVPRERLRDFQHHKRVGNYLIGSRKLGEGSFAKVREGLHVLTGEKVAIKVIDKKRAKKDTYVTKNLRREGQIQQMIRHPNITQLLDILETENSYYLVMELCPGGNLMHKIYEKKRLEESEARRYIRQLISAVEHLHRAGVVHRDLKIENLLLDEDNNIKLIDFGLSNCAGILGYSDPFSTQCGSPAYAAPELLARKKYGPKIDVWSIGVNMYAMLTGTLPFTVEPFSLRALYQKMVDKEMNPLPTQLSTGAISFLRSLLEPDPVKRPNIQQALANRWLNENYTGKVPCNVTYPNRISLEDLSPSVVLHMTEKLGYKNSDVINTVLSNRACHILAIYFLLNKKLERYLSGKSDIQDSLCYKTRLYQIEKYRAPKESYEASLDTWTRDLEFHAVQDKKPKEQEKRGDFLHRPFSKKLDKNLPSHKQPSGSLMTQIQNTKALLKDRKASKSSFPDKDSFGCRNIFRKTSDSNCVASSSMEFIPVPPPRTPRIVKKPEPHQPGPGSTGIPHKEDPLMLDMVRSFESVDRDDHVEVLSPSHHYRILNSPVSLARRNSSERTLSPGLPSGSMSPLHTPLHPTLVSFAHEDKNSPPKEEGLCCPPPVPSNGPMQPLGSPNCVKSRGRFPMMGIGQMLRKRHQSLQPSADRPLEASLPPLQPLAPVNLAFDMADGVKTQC
In test [4] the target is Phosphatidylinositol 4-phosphate 5-kinase type-1 gamma (Homo sapiens) (UniProt O60331). Put plainly: Inhibition of wild-type human partial length PIP5K1C (M1 to T668 residues) expressed in mammalian expression system assessed as residual activity at 50 nM by Kinomescan method relative to control.
Test [5] has as its target Dual specificity protein kinase CLK2 (Homo sapiens) (UniProt P49760). The test can be described thus: Inhibition of wild-type human partial length CLK2 (D144 to R498 residues) expressed in bacterial expression system assessed as residual activity at 50 nM by Kinomescan method relative to control.
In test [6] the target is Serine/threonine-protein kinase VRK2 (Homo sapiens) (UniProt Q86Y07). Put plainly: Inhibition of wild-type human partial length VRK2 (M1 to T336 residues) expressed in mammalian expression system assessed as residual activity at 50 nM by Kinomescan method relative to control.
Test [7] addresses Serine/threonine-protein kinase PAK 2 (Homo sapiens) (UniProt Q13177). The test can be described thus: Inhibition of wild-type human partial length PAK2 (P151 to R525 residues) expressed in bacterial expression system assessed as residual activity at 50 nM by Kinomescan method relative to control.
The target of test [8] is SRSF protein kinase 1 (Homo sapiens) (UniProt Q96SB4). The test can be described thus: Inhibition of wild-type human full length SRPK1 (M1 to S655 residues) expressed in bacterial expression system assessed as residual activity at 50 nM by Kinomescan method relative to control.
Test [9] addresses Fibroblast growth factor receptor 1 (Homo sapiens) (UniProt P11362). Put plainly: Inhibition of wild-type human partial length FGFR1 (P357 to V669 residues) expressed in bacterial expression system assessed as residual activity at 50 nM by Kinomescan method relative to control.
For test [10], the target named is 3-phosphoinositide-dependent protein kinase 1 (Homo sapiens) (UniProt O15530). The test can be described thus: Inhibition of wild-type human full length PDK1 (M1 to Q556 residues) expressed in bacterial expression system assessed as residual activity at 50 nM by Kinomescan method relative to control.
The target in test [11] is Dual specificity mitogen-activated protein kinase kinase 2 (Homo sapiens) (UniProt P36507). Put plainly: Inhibition of wild-type human full length MAP2K2 (M1 to V400 residues) expressed in mammalian expression system assessed as residual activity at 50 nM by Kinomescan method relative to control.
Dual specificity mitogen-activated protein kinase kinase 2 (Homo sapiens), sequence (P36507 whole entry, the tested form may be a part): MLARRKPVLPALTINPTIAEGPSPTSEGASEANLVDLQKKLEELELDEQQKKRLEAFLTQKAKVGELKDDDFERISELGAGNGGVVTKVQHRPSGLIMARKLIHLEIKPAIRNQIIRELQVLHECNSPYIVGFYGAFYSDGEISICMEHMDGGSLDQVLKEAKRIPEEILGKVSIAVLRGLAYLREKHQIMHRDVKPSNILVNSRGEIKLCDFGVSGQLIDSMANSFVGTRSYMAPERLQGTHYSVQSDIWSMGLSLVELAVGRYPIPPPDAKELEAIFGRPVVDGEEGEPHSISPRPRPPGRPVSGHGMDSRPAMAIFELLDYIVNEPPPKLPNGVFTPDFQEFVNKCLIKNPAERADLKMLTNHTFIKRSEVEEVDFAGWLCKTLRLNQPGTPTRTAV
The target in test [12] is Serine/threonine-protein kinase Nek3 (Homo sapiens) (UniProt P51956). The test can be described thus: Inhibition of wild-type human full length NEK3 (M1 to R506 residues) expressed in mammalian expression system assessed as residual activity at 50 nM by Kinomescan method relative to control.
In test [13] the target is Serine/threonine-protein kinase PLK3 (Homo sapiens) (UniProt Q9H4B4). Put plainly: Inhibition of wild-type human partial length PLK3 (A42 to L334 residues) expressed in mammalian expression system assessed as residual activity at 50 nM by Kinomescan method relative to control.
Serine/threonine-protein kinase PLK3 (Homo sapiens), sequence (Q9H4B4 whole entry, looked up, the tested form may be a part): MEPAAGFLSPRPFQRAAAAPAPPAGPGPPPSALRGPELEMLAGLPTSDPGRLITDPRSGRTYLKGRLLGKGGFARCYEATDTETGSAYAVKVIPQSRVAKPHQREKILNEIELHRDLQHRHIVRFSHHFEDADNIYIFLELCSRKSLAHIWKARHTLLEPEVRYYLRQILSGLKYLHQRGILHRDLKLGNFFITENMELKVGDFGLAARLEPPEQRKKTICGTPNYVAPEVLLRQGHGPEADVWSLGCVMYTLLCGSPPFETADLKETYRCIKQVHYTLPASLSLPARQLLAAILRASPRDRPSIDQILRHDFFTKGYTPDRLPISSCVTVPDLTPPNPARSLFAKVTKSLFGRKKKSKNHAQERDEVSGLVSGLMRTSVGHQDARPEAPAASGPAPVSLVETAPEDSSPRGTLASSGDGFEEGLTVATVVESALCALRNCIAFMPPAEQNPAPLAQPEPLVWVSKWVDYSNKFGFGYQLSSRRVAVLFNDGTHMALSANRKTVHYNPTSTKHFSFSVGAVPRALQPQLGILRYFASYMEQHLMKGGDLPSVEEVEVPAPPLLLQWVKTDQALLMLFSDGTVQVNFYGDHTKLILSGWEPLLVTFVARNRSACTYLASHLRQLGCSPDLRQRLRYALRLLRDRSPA
In test [14] the target is Dual specificity mitogen-activated protein kinase kinase 3 (Homo sapiens) (UniProt P46734). Put plainly: Inhibition of wild-type human full length MAP2K3 (M1 to S318 residues) expressed in mammalian expression system assessed as residual activity at 50 nM by Kinomescan method relative to control.
The target of test [15] is Ephrin type-B receptor 4 (Homo sapiens) (UniProt P54760). Put plainly: Inhibition of wild-type human partial length EPHB4 (H585 to G892 residues) expressed in bacterial expression system assessed as residual activity at 50 nM by Kinomescan method relative to control.
Test [16] deals with Tyrosine-protein kinase ABL1 (Homo sapiens) (UniProt P00519). Put plainly: Inhibition of wild-type human phosphorylated ABL1 (S229 to K512 residues) expressed in mammalian expression system assessed as residual activity at 50 nM by Kinomescan method relative to control.
Test [17] concerns the target Mitogen-activated protein kinase kinase kinase 15 (Homo sapiens) (UniProt Q6ZN16). The test can be described thus: Inhibition of wild-type human partial length MAP3K15 (T625 to L932 residues) expressed in mammalian expression system assessed as residual activity at 50 nM by Kinomescan method relative to control.
Test [18] addresses Mitogen-activated protein kinase kinase kinase 5 (Homo sapiens) (UniProt Q99683). The test can be described thus: Inhibition of wild-type human partial length MAP3K5 (E648 to S964 residues) expressed in bacterial expression system assessed as residual activity at 50 nM by Kinomescan method relative to control.
Test [19] addresses Serine/threonine-protein kinase Nek9 (Homo sapiens) (UniProt Q8TD19). Put plainly: Inhibition of wild-type human partial length NEK9 (P32 to R328 residues) expressed in bacterial expression system assessed as residual activity at 50 nM by Kinomescan method relative to control.
Test [20] has as its target Serine/threonine-protein kinase OSR1 (Homo sapiens) (UniProt O95747). The test can be described thus: Inhibition of wild-type human full length OSR1 (M1 to S527 residues) expressed in mammalian expression system assessed as residual activity at 50 nM by Kinomescan method relative to control.
Test [21] has as its system Phosphatidylinositol 4,5-bisphosphate 3-kinase catalytic subunit alpha isoform (Homo sapiens), P42336 [I800L]. The test can be described thus: Inhibition of human partial length PI3KCA I800L mutant (R108 to N1068 residues) expressed in mammalian expression system assessed as residual activity at 50 nM by Kinomescan method relative to control.
Test [22] has as its target Phosphatidylinositol 4,5-bisphosphate 3-kinase catalytic subunit gamma isoform (Homo sapiens) (UniProt P48736). Put plainly: Inhibition of wild-type human partial length PI3KCG (S144 to A1102 residues) expressed in mammalian expression system assessed as residual activity at 50 nM by Kinomescan method relative to control.
Test [23] has as its target Serine/threonine-protein kinase SBK1 (Homo sapiens) (UniProt Q52WX2). Put plainly: Inhibition of wild-type human partial length SBK1 (P23 to P348 residues) expressed in mammalian expression system assessed as residual activity at 50 nM by Kinomescan method relative to control.
For test [24], the target named is Testis-specific serine/threonine-protein kinase 1 (Homo sapiens) (UniProt Q9BXA7). The test can be described thus: Inhibition of wild-type human full length TSSK1B (M1 to Q367 residues) expressed in bacterial expression system assessed as residual activity at 50 nM by Kinomescan method relative to control.
Testis-specific serine/threonine-protein kinase 1 (Homo sapiens), sequence (Q9BXA7 whole entry, the tested form may be a part): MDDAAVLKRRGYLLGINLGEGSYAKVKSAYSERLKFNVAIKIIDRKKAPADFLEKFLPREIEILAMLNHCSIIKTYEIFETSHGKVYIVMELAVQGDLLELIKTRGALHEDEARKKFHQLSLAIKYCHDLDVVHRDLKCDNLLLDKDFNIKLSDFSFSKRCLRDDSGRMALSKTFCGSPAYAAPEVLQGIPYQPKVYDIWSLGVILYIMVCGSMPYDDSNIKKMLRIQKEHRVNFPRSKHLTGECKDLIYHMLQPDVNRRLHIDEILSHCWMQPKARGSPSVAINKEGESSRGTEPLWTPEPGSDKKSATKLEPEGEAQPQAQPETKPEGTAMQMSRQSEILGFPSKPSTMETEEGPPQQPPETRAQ

Mitogen-activated protein kinase kinase kinase 5 (Homo sapiens), sequence (Q99683 whole entry, the tested form may be a part): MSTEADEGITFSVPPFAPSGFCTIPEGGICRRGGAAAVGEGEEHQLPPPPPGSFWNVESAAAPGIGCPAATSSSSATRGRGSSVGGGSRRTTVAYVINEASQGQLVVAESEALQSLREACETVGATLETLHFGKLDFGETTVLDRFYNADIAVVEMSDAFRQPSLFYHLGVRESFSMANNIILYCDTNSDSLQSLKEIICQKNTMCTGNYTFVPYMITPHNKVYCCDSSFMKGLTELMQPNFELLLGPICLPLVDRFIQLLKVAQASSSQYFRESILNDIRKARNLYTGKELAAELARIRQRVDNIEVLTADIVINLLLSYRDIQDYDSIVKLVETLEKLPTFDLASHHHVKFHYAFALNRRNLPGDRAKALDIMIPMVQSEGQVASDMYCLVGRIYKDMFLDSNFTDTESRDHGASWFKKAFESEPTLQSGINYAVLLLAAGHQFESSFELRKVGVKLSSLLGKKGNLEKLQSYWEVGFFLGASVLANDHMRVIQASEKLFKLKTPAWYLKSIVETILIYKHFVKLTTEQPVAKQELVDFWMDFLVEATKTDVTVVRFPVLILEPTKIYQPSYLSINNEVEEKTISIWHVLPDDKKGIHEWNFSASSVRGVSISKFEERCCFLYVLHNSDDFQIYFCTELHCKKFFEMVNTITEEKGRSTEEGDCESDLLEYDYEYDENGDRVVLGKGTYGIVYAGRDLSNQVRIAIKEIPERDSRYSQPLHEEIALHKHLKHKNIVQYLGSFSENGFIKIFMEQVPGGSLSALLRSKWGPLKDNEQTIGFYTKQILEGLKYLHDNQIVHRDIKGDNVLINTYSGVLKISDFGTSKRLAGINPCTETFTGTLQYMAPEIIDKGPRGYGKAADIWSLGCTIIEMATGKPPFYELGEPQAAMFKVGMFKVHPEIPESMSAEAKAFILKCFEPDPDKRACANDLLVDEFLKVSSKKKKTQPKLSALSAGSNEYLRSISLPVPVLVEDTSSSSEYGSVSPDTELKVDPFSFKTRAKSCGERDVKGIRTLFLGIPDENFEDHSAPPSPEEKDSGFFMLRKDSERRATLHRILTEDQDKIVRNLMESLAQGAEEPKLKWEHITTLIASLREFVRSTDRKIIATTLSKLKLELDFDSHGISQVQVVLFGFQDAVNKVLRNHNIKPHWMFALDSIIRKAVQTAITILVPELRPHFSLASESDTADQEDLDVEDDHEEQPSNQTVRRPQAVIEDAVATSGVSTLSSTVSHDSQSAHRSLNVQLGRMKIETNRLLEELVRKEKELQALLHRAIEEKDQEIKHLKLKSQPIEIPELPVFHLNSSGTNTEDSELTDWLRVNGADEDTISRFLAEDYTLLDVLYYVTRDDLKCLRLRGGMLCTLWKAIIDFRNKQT
Phosphatidylinositol 4-phosphate 5-kinase type-1 alpha (Homo sapiens), sequence (Q99755 whole entry, the tested form may be a part): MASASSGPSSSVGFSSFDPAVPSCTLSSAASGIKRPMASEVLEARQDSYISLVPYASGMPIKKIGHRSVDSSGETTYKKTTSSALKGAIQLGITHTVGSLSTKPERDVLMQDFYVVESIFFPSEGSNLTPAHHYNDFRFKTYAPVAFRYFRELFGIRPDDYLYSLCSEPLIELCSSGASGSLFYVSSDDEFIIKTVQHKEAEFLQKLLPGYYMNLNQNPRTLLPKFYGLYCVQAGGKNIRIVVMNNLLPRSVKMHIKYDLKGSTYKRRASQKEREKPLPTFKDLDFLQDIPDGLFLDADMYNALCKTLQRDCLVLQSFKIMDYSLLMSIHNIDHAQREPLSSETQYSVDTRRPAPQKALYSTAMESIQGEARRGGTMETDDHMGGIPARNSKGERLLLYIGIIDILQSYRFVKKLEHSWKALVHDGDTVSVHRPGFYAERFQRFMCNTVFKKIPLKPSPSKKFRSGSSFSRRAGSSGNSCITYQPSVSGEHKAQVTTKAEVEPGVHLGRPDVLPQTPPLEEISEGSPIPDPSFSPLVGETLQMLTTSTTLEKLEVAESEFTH
Serine/threonine-protein kinase Nek9 (Homo sapiens), sequence (Q8TD19 whole entry, the tested form may be a part): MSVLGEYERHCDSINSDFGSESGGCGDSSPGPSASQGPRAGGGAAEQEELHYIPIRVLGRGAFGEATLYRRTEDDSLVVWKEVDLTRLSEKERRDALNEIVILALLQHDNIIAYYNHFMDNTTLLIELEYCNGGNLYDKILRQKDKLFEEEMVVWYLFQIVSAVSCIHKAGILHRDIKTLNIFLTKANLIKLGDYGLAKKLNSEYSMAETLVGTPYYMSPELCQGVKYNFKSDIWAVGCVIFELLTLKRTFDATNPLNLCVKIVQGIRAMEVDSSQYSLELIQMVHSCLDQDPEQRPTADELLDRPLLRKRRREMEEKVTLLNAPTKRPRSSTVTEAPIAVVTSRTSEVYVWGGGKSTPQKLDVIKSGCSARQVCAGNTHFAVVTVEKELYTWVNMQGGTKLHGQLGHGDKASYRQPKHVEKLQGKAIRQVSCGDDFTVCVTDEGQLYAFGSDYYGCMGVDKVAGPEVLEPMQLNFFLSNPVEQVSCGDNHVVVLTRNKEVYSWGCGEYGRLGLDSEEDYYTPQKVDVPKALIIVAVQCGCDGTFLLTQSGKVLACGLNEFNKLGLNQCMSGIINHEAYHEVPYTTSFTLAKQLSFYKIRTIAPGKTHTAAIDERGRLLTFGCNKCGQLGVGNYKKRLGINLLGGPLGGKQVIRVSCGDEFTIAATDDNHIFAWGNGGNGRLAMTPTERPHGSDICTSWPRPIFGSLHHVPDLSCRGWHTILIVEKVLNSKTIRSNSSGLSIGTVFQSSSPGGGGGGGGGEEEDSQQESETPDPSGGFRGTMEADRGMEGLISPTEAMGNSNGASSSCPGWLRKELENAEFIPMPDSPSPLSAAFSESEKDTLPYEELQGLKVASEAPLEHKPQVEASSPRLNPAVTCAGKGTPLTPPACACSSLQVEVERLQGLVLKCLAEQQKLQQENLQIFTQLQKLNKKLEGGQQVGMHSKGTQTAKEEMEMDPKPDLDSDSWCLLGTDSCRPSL

For `COc1ccc(-c2cc3c(N[C@@H]4CC[C@](C)(N)C4(C)C)c(C(N)=O)cnn3c2)cn1`, the Activity in test [1] worked out at 6%; in test [2], 17%; in [3], 100%; in test [4], 77%; in [5] it was 71%; in test [6] it was 85%. In addition, the Activity in test [7] stood at 77%; in [8], 62%; in [9], 92%; in [10], 96%; in [11] it was 100%; in [12], 100%. The Activity in [13] stood at 95%; in test [14], 92%; in test [15] it was 96%; in test [16], 74%; in test [17], 98%; in test [18] it was 100%. The Activity in [19] was determined as 100%; in test [20] it was 100%; in test [21] it was 100%; in test [22], 100%; in test [23] it was 72%; in test [24], 100%.

In the case of `CC1(C)[C@H](Nc2c(C(N)=O)cnn3cc(-c4ccccc4)cc23)CC[C@]1(C)N`, the Activity in test [1] was 2%; in test [2] it was 8.8%; in test [3], 65%; in [4], 68%; in test [5] it was 69%; in test [6] it was 70%. For the same molecule, the Activity in test [7] was found to be 76%; in [8], 80%; in test [9], 81%; in test [10], 82%; in [11], 84%; in test [12], 89%. Moreover, the Activity in test [13] was 89%; in test [14], 96%; in test [15], 99%; in test [16] it was 100%; in [17], 100%; in [18] it was 100%. Moreover, the Activity in test [19], in [20], in test [21], in [22], in [23] and in test [24] was 100% each time.
